The results in this text go back to ChEMBL document CHEMBL5055644, “Cysteine derivatives as acetyl lysine mimics to inhibit zinc-dependent histone deacetylases for treating cancer” (Eur J Med Chem, 2021).

Calls of active or inactive are those of the source. The calls are words filed in the database; no cut-off is given here.

One data set concerns the target Histone deacetylase 4 (Homo sapiens, UniProt P56524). Briefly: Inhibition of human HDAC4 using Boc-Lys(acetyl)-AMC as fluorogenic substrate measured after 1 hr by flourescence plate reader method.
Data set [1] in a line: Half life in human liver microsomes. Type of data set: ADME, Microsome. In general terms: Microsomes from liver hold many membrane-bound enzymes, among them those of drug oxidation.
A further data set relates to HepG2. Briefly: cells. The data set is classed as functional. The conditions noted are these: Homo sapiens, time 48 hrs.
The nature of data set [2]: Half life in mouse liver microsomes. Type of data set: ADME, Microsome.
In data set [3] the target is T1, Protein deacetylase HDAC6 (Homo sapiens, UniProt Q9UBN7).
T1 sequence (Q9UBN7 whole entry): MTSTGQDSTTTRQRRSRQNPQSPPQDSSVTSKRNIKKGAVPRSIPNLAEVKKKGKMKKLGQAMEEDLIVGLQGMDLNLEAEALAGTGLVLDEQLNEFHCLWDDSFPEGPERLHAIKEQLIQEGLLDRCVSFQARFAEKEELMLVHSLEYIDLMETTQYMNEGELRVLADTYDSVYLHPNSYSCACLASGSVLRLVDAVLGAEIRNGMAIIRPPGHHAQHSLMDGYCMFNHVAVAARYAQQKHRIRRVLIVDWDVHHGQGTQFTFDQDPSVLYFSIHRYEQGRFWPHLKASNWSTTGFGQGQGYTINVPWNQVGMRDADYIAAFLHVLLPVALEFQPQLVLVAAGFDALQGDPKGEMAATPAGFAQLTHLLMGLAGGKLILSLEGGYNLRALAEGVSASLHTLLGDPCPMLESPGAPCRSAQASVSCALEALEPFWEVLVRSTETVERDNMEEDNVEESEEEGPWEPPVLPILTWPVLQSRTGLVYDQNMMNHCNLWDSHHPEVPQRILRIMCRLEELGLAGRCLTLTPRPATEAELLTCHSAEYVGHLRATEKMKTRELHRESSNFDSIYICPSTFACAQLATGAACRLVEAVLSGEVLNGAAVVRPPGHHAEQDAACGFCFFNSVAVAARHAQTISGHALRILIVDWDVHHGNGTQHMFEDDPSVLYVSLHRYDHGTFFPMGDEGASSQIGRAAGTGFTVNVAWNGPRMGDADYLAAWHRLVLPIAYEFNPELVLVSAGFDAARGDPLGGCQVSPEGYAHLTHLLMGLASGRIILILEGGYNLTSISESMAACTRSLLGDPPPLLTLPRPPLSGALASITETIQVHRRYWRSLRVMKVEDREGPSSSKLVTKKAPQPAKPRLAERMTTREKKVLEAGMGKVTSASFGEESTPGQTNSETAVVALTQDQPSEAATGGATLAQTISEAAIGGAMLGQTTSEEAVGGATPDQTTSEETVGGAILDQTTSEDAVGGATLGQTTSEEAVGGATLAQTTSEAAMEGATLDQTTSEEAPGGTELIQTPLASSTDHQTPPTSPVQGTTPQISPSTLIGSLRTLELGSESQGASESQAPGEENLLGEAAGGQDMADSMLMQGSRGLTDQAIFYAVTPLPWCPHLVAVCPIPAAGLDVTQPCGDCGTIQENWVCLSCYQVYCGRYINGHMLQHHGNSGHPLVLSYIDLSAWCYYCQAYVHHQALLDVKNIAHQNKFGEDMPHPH
Briefly: Inhibition of HDAC6 (unknown origin) using Boc-Lys(acetyl)-AMC as fluorogenic substrate measured after 1 hr by flourescence plate reader method.

A further data set concerns the target T2, Histone deacetylase 7 (Homo sapiens, UniProt Q8WUI4).
T2 sequence (Q8WUI4 whole entry): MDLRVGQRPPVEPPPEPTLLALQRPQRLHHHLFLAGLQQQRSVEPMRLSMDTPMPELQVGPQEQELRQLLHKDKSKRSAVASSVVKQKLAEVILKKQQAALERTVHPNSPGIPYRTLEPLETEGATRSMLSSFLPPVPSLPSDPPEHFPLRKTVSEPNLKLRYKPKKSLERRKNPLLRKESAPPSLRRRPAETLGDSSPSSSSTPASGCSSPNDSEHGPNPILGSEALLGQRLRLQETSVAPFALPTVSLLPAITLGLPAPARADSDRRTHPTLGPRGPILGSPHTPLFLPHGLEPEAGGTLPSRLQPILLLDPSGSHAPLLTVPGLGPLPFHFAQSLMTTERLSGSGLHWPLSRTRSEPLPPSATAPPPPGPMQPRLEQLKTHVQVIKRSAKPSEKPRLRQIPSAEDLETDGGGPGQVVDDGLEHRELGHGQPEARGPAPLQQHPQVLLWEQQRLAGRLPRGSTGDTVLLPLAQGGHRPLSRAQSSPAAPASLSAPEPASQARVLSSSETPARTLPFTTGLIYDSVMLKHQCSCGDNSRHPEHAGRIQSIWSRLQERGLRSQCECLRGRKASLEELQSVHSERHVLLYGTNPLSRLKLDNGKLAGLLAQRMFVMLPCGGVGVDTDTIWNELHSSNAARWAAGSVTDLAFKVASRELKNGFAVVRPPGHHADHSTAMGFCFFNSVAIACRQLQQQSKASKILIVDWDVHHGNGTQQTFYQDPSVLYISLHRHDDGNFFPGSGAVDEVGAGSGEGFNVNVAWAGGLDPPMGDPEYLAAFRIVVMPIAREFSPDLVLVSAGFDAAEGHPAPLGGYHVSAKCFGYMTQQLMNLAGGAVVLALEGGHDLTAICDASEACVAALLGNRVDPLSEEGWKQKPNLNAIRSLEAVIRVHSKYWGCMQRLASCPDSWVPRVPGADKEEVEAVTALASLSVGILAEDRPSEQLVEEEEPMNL
The data set can be described thus: Inhibition of human N-terminal GST tagged HDAC7 (518 to end residues) expressed in baculovirus infected Sf9 insect cells using Boc-Lys(acetyl)-AMC as fluorogenic substrate measured after 1 hr by flourescence plate reader method.

The test system of the next data set is K562. Briefly: cells. Type of data set: functional. The following applies: Homo sapiens, time 48 hrs.
The next data set deals with MCF7. Briefly: cells. The data set is classed as functional. The following applies: Homo sapiens, time 48 hrs.
The target of the next data set is Histone deacetylase. The data set can be described thus: Inhibition of HDAC in human HeLa nuclear extract using Boc-Lys(acetyl)-AMC as fluorogenic substrate measured after 1 hr by flourescence plate reader method. Type of data set: subcellular, Nucleus.
The target of another data set is Histone deacetylase 1 (Homo sapiens, UniProt Q13547). Briefly: Inhibition of HDAC1 (unknown origin) using Boc-Lys(acetyl)-AMC as fluorogenic substrate measured after 1 hr by flourescence plate reader method.
Histone deacetylase 1, sequence (Q13547 whole entry, the tested form may be a part): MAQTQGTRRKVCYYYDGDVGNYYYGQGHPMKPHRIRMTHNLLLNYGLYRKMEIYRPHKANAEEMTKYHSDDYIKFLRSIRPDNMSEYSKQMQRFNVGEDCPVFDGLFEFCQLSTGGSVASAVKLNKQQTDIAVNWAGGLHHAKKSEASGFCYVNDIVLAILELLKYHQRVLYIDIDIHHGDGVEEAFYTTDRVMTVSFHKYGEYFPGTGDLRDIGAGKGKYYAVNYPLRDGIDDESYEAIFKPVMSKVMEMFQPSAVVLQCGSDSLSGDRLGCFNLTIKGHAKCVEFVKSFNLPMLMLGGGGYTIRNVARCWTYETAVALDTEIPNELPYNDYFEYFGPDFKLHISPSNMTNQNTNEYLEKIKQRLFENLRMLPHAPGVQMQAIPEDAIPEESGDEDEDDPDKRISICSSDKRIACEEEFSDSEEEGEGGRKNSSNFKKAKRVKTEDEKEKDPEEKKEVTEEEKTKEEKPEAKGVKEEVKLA
Data set [4] deals with Histone deacetylase 3/Nuclear receptor corepressor 2 (HDAC3/NCoR2) (Homo sapiens, UniProt O15379). Briefly: Inhibition of C-terminal His-tagged recombinant human HDAC3 (1 to 428 residues)/N-terminal GST-tagged recombinant human NCoR2 (395 to 489 residues) co-expressed in baculovirus infected Sf9 cells using Boc-Lys(acetyl)-AMC as fluorogenic substrate measured after 1 hr by flourescence plate reader method.
Histone deacetylase 3/Nuclear receptor corepressor 2 (HDAC3/NCoR2), sequence (O15379 whole entry, the tested form may be a part): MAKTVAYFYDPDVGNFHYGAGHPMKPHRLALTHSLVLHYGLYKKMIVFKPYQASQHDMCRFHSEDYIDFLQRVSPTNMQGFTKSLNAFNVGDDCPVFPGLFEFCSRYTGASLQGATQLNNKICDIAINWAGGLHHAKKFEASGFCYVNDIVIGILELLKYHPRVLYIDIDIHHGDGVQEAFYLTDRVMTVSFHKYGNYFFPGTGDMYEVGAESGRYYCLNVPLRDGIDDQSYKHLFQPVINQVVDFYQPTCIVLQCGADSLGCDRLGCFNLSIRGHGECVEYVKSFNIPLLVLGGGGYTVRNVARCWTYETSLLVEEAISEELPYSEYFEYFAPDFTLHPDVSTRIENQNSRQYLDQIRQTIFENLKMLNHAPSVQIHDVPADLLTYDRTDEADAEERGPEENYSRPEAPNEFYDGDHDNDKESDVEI
Histone deacetylase 3/Nuclear receptor corepressor 2 (HDAC3/NCoR2), sequence (Q9Y618 whole entry, further chain, the tested form may be a part): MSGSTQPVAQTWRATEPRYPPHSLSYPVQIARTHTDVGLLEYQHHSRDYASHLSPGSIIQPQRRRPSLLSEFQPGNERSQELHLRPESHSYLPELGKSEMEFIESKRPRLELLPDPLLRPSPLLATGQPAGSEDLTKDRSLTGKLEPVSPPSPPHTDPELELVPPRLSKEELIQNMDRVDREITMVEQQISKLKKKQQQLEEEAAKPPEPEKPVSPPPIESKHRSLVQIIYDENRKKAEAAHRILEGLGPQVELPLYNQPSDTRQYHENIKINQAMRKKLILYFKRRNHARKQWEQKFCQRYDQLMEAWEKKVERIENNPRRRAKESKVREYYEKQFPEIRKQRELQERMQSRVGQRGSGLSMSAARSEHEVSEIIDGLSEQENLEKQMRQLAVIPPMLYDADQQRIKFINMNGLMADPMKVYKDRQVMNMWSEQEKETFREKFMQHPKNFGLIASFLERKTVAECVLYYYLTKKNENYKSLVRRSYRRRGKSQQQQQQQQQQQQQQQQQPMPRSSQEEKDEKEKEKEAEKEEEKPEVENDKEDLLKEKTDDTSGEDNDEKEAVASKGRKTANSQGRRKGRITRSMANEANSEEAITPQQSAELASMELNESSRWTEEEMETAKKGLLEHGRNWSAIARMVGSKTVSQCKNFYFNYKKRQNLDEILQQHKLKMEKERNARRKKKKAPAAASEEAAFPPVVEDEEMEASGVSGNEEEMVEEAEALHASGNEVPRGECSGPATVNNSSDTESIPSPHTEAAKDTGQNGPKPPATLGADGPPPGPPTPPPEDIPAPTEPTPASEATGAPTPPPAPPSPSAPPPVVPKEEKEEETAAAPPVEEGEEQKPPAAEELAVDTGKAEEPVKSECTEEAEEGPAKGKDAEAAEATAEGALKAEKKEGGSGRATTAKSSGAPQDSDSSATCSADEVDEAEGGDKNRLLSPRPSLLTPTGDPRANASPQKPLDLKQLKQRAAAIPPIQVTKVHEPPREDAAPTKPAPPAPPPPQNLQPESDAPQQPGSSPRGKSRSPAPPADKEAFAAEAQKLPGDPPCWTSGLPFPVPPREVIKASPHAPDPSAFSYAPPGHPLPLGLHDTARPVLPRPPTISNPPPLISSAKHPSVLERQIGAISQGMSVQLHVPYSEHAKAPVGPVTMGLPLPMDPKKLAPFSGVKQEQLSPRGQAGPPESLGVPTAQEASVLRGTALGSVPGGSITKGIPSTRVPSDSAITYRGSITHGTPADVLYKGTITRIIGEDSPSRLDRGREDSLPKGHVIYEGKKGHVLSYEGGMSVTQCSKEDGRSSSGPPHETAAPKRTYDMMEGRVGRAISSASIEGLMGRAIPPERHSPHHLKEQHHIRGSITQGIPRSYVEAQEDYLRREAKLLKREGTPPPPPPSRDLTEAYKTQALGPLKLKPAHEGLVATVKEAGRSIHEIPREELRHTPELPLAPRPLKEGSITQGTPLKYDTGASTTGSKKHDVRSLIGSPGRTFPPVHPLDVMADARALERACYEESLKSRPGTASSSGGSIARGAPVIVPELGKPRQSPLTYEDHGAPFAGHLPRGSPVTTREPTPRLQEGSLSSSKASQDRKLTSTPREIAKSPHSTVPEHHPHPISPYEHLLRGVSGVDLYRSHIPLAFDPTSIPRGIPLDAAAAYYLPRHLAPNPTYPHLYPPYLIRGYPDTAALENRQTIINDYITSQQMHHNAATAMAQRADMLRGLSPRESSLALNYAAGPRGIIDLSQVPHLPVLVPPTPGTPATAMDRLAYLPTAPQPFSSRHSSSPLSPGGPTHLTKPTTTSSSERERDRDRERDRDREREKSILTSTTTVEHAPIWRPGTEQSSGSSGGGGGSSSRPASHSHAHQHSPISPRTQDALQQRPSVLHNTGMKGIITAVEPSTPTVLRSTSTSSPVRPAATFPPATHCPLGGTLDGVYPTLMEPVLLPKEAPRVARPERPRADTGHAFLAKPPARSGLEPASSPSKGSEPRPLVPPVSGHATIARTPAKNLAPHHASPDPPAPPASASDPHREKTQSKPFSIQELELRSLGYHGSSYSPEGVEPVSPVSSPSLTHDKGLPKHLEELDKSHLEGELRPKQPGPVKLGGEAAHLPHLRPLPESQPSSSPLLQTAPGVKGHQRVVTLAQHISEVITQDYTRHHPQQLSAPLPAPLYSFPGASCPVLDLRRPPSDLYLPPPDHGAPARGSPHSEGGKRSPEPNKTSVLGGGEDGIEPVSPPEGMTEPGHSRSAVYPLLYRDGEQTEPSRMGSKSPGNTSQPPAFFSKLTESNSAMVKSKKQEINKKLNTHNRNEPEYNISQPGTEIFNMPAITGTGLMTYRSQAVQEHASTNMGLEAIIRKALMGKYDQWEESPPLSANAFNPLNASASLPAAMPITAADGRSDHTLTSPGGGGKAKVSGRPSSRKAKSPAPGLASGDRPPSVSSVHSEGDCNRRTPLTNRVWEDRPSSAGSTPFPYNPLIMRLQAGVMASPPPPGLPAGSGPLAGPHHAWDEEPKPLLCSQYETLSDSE

Data set [5] addresses T3, Class 1 histone deacetylase (Homo sapiens) (UniProt Q13547+O15379+Q92769+Q9BY41). Briefly: Inhibition of class 1 HDAC in human K562 cells assessed as increase in histone H3 acetylation at 10 uM measured after 8 hrs by Western blot analysis. Type of data set: cell-based.
In data set [6] the target is T3, Class 1 histone deacetylase (Homo sapiens). Briefly: Inhibition of class 1 HDAC in human A549 cells assessed as increase in histone H3/H4 acetylation at 10 uM measured after 8 hrs by Western blot analysis. The data set is classed as cell-based. For orientation: Immunoblotting shows a protein as a band on a membrane.

T3 sequence (O15379 whole entry, looked up): as the sequence (O15379 whole entry, the tested form may be a part) above
T3 sequence (Q13547 whole entry, looked up): as the sequence (Q13547 whole entry, the tested form may be a part) above
T3 sequence (Q92769 whole entry, looked up): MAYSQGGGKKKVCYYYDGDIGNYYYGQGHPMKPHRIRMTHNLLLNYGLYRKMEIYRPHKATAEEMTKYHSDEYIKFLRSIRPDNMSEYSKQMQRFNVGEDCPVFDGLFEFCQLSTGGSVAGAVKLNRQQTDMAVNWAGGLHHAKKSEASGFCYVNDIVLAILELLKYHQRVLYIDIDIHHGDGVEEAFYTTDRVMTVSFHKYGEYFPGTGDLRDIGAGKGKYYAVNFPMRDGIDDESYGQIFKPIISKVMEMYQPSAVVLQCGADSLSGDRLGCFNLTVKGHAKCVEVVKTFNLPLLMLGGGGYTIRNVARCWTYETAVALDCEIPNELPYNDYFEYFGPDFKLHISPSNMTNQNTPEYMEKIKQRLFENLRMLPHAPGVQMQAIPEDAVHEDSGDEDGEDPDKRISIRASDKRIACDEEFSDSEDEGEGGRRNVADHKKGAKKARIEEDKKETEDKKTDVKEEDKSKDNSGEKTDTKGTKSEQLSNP
T3 sequence (Q9BY41 whole entry, looked up): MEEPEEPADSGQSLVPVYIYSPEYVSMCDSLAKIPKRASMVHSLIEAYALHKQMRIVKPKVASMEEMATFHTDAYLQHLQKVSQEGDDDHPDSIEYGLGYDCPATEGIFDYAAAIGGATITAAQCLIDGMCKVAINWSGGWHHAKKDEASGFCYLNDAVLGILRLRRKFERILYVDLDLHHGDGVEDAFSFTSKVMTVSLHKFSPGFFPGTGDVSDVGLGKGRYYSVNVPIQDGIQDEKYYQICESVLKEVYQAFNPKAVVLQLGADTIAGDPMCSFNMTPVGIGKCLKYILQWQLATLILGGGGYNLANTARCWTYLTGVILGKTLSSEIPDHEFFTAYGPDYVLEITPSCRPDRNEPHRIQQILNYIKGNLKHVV
Description for HepG2: Antiproliferative activity against human HepG2 cells assessed as inhibition of cell proliferation incubated for 48 hrs by CCK8 assay
Description for K562: Antiproliferative activity against human K562 cells assessed as inhibition of cell proliferation incubated for 48 hrs by CCK8 assay
Description for MCF7: Antiproliferative activity against human MCF-7 cells assessed as inhibition of cell proliferation incubated for 48 hrs by CCK8 assay

Broadly, the IC50 is the point on the concentration scale where inhibition reaches its midpoint. In general, half-life refers to how long it takes for the measured level to halve. Low readings indicate fast loss, high ones slow loss. One may read the GI50 as the concentration that inhibits growth by half. As for `O=C(CCCSC[C@H](NC(=O)OCc1ccccc1)C(=O)Nc1cccc2ccccc12)NO`, the IC50 against Histone deacetylase 4 was over 200 nM; in [3] it was 19.6 nM; on Histone deacetylase 7, over 200 nM; on Histone deacetylase, 72.4 nM; against Histone deacetylase 1, 150 nM; in data set [4], 69.3 nM. Moreover, the half-life was 3.96 min in [1] and under 1 min in [2]. The values for the GI50 in the data set with HepG2, in the data set on K562 and in the data set with MCF7 were 4500 nM, 2000 nM and 4900 nM, respectively. In addition, the inhibition entry in data set [5] was “Active”.

For the molecule `O=C(CCCSC[C@H](NC(=O)OCc1ccccc1)C(=O)Nc1ccccc1)NO`, the IC50 is over 200 nM against Histone deacetylase 4; 20.6 nM in [3]; over 200 nM against Histone deacetylase 7; 75.1 nM at Histone deacetylase; 172 nM against Histone deacetylase 1; 108 nM in data set [4]. For the same molecule, the results for the GI50 with HepG2, in the data set on K562 and with MCF7 were 7300 nM, 1700 nM and 4700 nM, respectively. In [5], the inhibition result was “Active”.

As for `O=C(CCCSC[C@H](NC(=O)c1ccccc1)C(=O)Nc1ccccc1)NO`, the IC50 against Histone deacetylase 4 was over 200 nM; in data set [3], 13.7 nM; on Histone deacetylase 7, over 200 nM; at Histone deacetylase, 52.7 nM; against Histone deacetylase 1, 198 nM; in data set [4], 126 nM. In addition, the inhibition result in data set [6] and in data set [5] was “Active” in each case. The figures for the half-life in data set [1] and in data set [2] were 34.8 min and 22.6 min, respectively. Also, the GI50 came out at 6200 nM in the data set with HepG2, 1400 nM in the data set with K562 and 3700 nM in the data set with MCF7.
